Source: patent publication US10669284B2, “Fused thiazolopyrimidine derivatives as MNKS inhibitors” (LIFEARC, priority 2015, dated 2020)

What was measured:
RAF1 = RAF1 (Homo sapiens, UniProt P04049); assay: Kinase selectivity screen RAF1; conditions: read-out: % inhibition of RAF1
EPHB4 = molecular target: T1, EPHB4 (Homo sapiens, UniProt P54760); assay: Kinase selectivity screen EPHB4; conditions: read-out: % inhibition of EPHB4
T1 sequence (P54760 16-987): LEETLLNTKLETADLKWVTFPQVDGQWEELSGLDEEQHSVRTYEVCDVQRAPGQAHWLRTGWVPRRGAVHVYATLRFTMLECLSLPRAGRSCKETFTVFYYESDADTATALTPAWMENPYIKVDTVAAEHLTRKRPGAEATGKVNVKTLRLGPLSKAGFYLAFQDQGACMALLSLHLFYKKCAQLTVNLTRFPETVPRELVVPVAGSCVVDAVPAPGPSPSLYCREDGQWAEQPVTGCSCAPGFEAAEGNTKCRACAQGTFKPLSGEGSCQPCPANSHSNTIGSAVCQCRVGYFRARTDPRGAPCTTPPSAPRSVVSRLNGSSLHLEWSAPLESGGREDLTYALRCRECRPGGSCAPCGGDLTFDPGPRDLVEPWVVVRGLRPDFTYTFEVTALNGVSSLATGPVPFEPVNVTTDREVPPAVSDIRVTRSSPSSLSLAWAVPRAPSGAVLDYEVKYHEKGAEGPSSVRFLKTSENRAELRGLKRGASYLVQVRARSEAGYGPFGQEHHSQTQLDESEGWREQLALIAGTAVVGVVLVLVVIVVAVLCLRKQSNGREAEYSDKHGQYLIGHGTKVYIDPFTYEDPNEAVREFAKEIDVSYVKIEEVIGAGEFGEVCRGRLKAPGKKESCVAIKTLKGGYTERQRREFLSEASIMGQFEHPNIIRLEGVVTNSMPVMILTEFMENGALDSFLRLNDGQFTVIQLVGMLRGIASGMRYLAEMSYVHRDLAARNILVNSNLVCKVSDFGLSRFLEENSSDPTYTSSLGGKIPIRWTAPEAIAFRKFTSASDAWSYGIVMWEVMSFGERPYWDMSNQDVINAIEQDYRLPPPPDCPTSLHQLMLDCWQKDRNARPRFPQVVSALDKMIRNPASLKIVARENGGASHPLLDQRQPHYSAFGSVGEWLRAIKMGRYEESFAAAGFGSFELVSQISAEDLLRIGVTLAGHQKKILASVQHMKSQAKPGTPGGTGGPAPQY

PRKCE = molecular target: T2, PRKCE (Homo sapiens, UniProt Q02156); assay: Kinase selectivity screen PRKCE; conditions: read-out: % inhibition of PRKCE
T2 sequence (Q02156 1-737): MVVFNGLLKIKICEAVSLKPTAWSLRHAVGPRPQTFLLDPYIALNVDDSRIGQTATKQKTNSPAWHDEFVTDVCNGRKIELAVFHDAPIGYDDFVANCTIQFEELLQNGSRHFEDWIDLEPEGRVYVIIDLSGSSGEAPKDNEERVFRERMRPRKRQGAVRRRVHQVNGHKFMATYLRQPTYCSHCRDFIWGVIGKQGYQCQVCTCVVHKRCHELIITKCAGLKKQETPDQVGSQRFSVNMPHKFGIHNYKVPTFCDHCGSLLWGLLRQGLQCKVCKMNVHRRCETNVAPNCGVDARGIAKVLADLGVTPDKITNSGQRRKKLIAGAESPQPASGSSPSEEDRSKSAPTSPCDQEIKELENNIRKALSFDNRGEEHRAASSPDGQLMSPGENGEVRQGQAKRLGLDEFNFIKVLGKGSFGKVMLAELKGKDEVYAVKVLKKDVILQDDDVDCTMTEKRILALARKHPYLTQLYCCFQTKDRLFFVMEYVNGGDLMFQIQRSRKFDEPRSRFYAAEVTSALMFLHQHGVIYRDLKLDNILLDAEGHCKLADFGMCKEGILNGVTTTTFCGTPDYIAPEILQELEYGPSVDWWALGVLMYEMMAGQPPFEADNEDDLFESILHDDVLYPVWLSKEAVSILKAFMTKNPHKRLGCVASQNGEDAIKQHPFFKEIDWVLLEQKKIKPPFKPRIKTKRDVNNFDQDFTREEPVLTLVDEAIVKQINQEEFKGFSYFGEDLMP

AURKC = molecular target: T3, AURKC (Homo sapiens, UniProt Q9UQB9); assay: Kinase selectivity screen AURKC; conditions: read-out: % inhibition of AURKC
T3 sequence (Q9UQB9 1-309): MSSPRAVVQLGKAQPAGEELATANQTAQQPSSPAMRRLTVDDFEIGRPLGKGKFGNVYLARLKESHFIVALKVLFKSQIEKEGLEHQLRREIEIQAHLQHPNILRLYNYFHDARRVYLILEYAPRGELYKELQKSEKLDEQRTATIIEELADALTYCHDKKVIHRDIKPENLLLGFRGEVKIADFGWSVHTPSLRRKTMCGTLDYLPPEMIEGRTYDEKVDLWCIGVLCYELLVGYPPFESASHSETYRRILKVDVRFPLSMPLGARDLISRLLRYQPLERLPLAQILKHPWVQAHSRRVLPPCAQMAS

Sequence of RAF1 (P04049 whole entry, species assumed): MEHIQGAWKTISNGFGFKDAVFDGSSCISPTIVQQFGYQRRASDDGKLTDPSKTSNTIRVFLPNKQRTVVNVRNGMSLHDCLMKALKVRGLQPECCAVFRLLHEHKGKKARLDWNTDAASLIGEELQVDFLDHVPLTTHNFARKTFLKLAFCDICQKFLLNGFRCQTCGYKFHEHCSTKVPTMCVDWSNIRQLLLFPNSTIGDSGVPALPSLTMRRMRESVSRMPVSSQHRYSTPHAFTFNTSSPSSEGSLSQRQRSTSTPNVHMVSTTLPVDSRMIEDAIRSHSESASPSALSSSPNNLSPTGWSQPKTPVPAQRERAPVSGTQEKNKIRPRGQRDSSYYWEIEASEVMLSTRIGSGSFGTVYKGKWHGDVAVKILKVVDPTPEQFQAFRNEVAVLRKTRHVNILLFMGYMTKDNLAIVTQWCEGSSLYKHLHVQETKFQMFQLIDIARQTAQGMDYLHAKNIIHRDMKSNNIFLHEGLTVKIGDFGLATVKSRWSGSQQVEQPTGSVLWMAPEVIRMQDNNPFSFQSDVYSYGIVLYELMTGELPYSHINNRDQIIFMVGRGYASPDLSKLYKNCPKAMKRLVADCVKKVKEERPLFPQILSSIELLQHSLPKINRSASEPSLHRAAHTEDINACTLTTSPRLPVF

SMILES	inhibition at 1 µM (RAF1) [%]	inhibition at 1 µM (EPHB4) [%]	inhibition at 1 µM (PRKCE) [%]	inhibition at 1 µM (AURKC) [%]
CC(C)Oc1cc(F)ccc1Nc1ncnc2sc(C(=O)NCC3CCNCC3)nc12 [Example 10, 7-(4-fluoro-2-isopropoxy-anilino)-N-(4-piperidylmethyl)thiazolo[5,4-d]pyrimidine-2-carboxamide]	0	4	4	14
O=C(NCC1CCNCC1)c1nc2c(N3CCc4cc(F)ccc43)ncnc2s1 [Example 58, 7-(5-fluoroindolin-1-yl)-N-(4-piperidylmethyl)thiazolo[5,4-d]pyrimidine-2-carboxamide]	1	0	0	5
CN(C)CCCNC(=O)c1nc2c(N3CCc4cc(F)ccc43)ncnc2s1 [Example 64, N-[3-(dimethylamino)propyl]-7-(5-fluoroindolin-1-yl)thiazolo[5,4-d]pyrimidine-2-carboxamide]	0	8	0	15
